{
  "source": "patent US20160193148A1",
  "about": "“LIPOSOMAL FORMULATIONS FOR THE TREATMENT OF BACTERIAL INFECTIONS” (UNIVERSITY OF GEORGIA RESEARCH FOUNDATION, INC., priority 2013, published 2016)",
  "key": {"[1]": {"experiment": "Plasma pharmacokinetics after single IV or nebulized dose in foals", "experimental": "Eight healthy 5-7-week-old Quarter Horse foals were randomly assigned to one of 4 groups using a balanced Latin-square design. Foals were considered healthy on the basis of physical examinations, complete blood cell counts and plasma biochemical profiles. […] The liposome gentamicin formulation was nebulized using Nortev FLEXINEB. For each treatment, gentamicin was administered over a period of 15 minutes. There was a washout period of 7-14 days between each treatment.\nFor the BAL collection, foals were sedated with xylazine and butorphanol. Concentrations of gentamicin were measured in plasma and in bronchoalveolar cells using HPLC-MS.\nEight foals received a single IV or nebulized dose (6.6 mg/kg bwt) of FG^h or LG in a balanced Latin square design. Beginning at 5-7 weeks of age, every foal received each of the 4 possible drug-route combinations with a 14-day washout period between each administration. Intravenous FG and LG were diluted in 250 ml of sterile 0.9% saline and administered via a jugular catheter as a constant rate infusion over 15 min. Nebulized FG and LG were administered by inhalation over 15 minutes via a commercial equine nebulizer. To ensure equivalent rate of delivery, FG was diluted to the same volume as LG with sterile 0.9% saline. Particle size of nebulized LG was verified using laser diffraction. Blood samples for plasma separation were obtained from a catheter placed in the contralateral jugular vein prior to each drug administration, and at 5, 10, 20, 30, 45 minutes and 1, 1.5, 2, 3, 4, 6, 8, 12, 16, 24 and 48 hours after the end of the 15 minute IV infusion or nebulization period. Bronchoalveolar lavage (BAL) fluid was collected at 2, 4, 8, 24, and 48 hours. Foals were sedated with xylazine hydrochloride (0.5 mg/kg bwt IV) and butorphanol tartrate (0.07 mg/kg bwt IV) prior to collection of BAL fluid. Prior to analysis for gentamicin concentration, blood samples were centrifuged at 400×g for 10 minutes and the resultant plasma frozen at −80° C. until assayed.\nBriefly, gentamicin was extracted from plasma (250 μl) and urine (500 μl) using protein precipitation with an equal volume of ice-cold 90:10 acetonitrile: 0.2% formic acid (v/v). Extracted samples were centrifuged (2° C. at 10,000×g for 10 min) twice. Two-hundred microliters of the supernatants were transferred to polypropylene inserts for injection. The supernatant derived from the lyzed BAL cell pellet was transferred to polypropylene inserts for direct injection without further processing. […] An aliquot of the resultant supernatant was then mixed with an equal volume of ice-cold acetonitrile, centrifuged (2° C. at 10,000×g for 10 minutes) and 200 μl was transferred to polypropylene inserts for injection. Calibration standards were prepared in drug-free foal plasma, BAL fluid or urine and then extracted as described above so that standard curves specific to each biologic matrix could be constructed. […] Analyte separation and LC-MS/MS measurement of gentamicin were performed exactly as described previously (Burton et al. (2013) Equine Vet J. 45, 507-511) except that BAL fluid samples, were introduced in the MS with a flow rate of 0.18 ml/minutes and a total run time of 8 minutes due to relatively low gentamicin concentration in those samples.\nFor each foal, plasma, PELF, and BAL cell concentration versus time data were analyzed using commercial software. Noncompartmental analysis was used for PELF and BAL cell data."}, "[2]": {"conditions": "simulation, Burton et al. 2013, cited from earlier work"}, "[3]": {"conditions": "plasma, IV 6.6 mg/kg, 8 foals, Table 4"}, "[4]": {"conditions": "plasma, IV 6.6 mg/kg, 8 foals, listed as FG, 6.6 mg/kg"}},
  "note": "Several values for one entry are separate records, joined by “and”; a condition that tells them apart may be missing. Equal entries are not always repeated. Where two headings read alike, the source gives them in different places.",
  "data": [
    {"substance": "gentamicin sulfate [Free Gentamicin]", "values": [
      {"measurement": "Plasma concentrations after nebulized administration", "setting": "[1]; nebulized 6.6 mg/kg, at most time points", "result": 570, "unit": "ng/mL"},
      {"measurement": "A (intercept of the distribution phase)", "setting": "[1]; plasma, IV 6.6 mg/kg, 8 foals", "result": "53.24 ± 25.83", "unit": "µg/mL"},
      {"measurement": "AUC0-t", "setting": "[1]; plasma, IV 6.6 mg/kg, 8 foals", "result": "96700 ± 63800", "unit": "ng·h/mL"},
      {"measurement": "AUC0-∞", "setting": "[1]; plasma, IV 6.6 mg/kg, 8 foals", "result": "98400 ± 64300", "unit": "ng·h/mL"},
      {"measurement": "AUMC0-∞", "setting": "[1]; plasma, IV 6.6 mg/kg, 8 foals", "result": "360.2 ± 364.0", "unit": "μg · h^2/ml"},
      {"measurement": "B (intercept of the elimination phase)", "setting": "[1]; plasma, IV 6.6 mg/kg, 8 foals", "result": "2.50 ± 1.50", "unit": "µg/mL"},
      {"measurement": "CL", "setting": "[1]; plasma, IV 6.6 mg/kg, 8 foals", "result": "1.42 ± 0.615", "unit": "mL/min/kg"},
      {"measurement": "MRT", "setting": "[1]; plasma, IV 6.6 mg/kg, 8 foals", "result": "3.18 ± 1.25", "unit": "h"},
      {"measurement": "t1/2α (distribution half-life)", "setting": "[1]; plasma, IV 6.6 mg/kg, 8 foals", "result": "0.97 ± 0.45"},
      {"measurement": "α (rate constant of the distribution phase)", "setting": "[1]; plasma, IV 6.6 mg/kg, 8 foals", "result": "0.82 ± 0.28", "unit": "h⁻¹"},
      {"measurement": "β (rate constant of the elimination phase)", "setting": "[1]; plasma, IV 6.6 mg/kg, 8 foals", "result": "0.12 ± 0.04", "unit": "h⁻¹"},
      {"measurement": "C0.5 h", "setting": "[1]; [3]", "result": "71780 ± 92140", "unit": "ng/mL"},
      {"measurement": "C48 h", "setting": "[1]; [3]", "result": "90 ± 90", "unit": "ng/mL"},
      {"measurement": "t1/2β", "setting": "[1]; plasma, IV 6.6 mg/kg, 8 foals, Table 4, listed as FG, 6.6 mg/kg", "result": "6.2 ± 1.8 h and 6.20 ± 1.77 h"},
      {"measurement": "C1 h", "setting": "[1]; [4]", "result": "32600 ± 25280", "unit": "ng/mL"},
      {"measurement": "C24 h", "setting": "[1]; [4]", "result": "250 ± 190", "unit": "ng/mL"},
      {"measurement": "C0.5 h", "setting": "[1]; plasma, IV 6.6 mg/kg, Table 1", "result": "71800 ± 92100", "unit": "ng/mL"},
      {"measurement": "C48 h", "setting": "[1]; plasma, IV 6.6 mg/kg, Table 1", "result": "100 ± 90", "unit": "ng/mL"},
      {"measurement": "t1/2β", "setting": "[1]; plasma, IV 6.6 mg/kg, Table 1, 6.6 mg/kg", "result": "6.2 ± 1.8", "unit": "h"},
      {"measurement": "t1/2β", "setting": "[1]; plasma, IV 6.6 mg/kg, Table 1, listed as free gentamicin, 6.6 mg/kg", "result": "6.2 ± 1.8", "unit": "h"},
      {"measurement": "predicted plasma concentration 1 hour after IV administration", "setting": "[2]; at 4 weeks of age", "result": "25.27 ± 9.52", "unit": "µg/mL"},
      {"measurement": "predicted plasma concentration 24 hours after administration", "setting": "[2]; at 4 weeks of age", "result": "0.20 ± 0.22", "unit": "µg/mL"},
      {"measurement": "predicted plasma concentration 1 hour after IV administration", "setting": "[2]; at 12 weeks of age", "result": "34.52 ± 14.11", "unit": "µg/mL"},
      {"measurement": "predicted plasma concentration 24 hours after administration", "setting": "[2]; at 12 weeks of age", "result": "0.26 ± 0.11", "unit": "µg/mL"}
    ]}
  ]
}
